Assays:
BDF1 mice = assay: TNBS-induced colitis in mice; assay type: in vivo, mouse; settings: TNBS; 2.5 mg/kg; 2 days
Method: (C) TNBS-Induced Colitis in Mice […] On Day 0 of the study TNBS (200 μL) is administered intra-colonically via a plastic catheter followed by BID dosing of the vehicle, reference or test compound for 2 or 4 days. During the study animals are weighed every day and stool observations are made and recorded as a score, based on stool consistency. At the time of sacrifice on Day 2 (or Day 4) the large intestine is removed and the length and weight recorded. Sections of the colon are taken for either MPO analysis to determine neutrophil infiltration or for histopathology involving scoring to determine disease severity.

d-U937 cells = assay: Cell viability: MTT assay; assay type: cell-based, human; settings: 1 μg/mL
How it was run: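 Differentiated U937 cells exposed to compound at 1 or 10 μg/mL, either 4 h in 5% FCS or 24 h in 10% FCS RPMI1640. MTT then added for 1 h, formazan dissolved in DMSO and read at 550 nm. Viability loss given as % versus 0.5% DMSO vehicle; apparent gains appear negative.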

cSrc = cSrc (Homo sapiens, UniProt P12931); assay: c-Src enzyme inhibition (FRET); assay type: biochemical
Sequence of cSrc (P12931 whole entry): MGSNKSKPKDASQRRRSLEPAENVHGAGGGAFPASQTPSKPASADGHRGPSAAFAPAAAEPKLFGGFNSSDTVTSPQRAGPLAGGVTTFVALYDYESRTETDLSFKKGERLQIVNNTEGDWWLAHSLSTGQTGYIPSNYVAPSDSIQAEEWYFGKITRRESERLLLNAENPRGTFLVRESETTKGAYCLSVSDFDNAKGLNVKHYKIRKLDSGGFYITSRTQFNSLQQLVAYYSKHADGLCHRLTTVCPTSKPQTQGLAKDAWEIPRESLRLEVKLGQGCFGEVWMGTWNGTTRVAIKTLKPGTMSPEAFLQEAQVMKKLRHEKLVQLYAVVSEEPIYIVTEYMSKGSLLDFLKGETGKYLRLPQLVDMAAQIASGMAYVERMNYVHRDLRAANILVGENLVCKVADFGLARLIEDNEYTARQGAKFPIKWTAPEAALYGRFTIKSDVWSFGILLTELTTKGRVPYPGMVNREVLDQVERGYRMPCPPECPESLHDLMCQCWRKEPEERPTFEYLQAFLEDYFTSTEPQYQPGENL
How it was run: (§1)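 Enzyme was preincubated with test compound (added as 4, 0.4, 0.04 or 0.004 μg/mL solutions) for 2 hr at RT. FRET peptide (8 μM solution) and ATP solution (800 μM for c-Src, 60 μM for Syk) were then added for 1 hr, followed by 1 hr protease development.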

Syk = Syk (Homo sapiens, UniProt P43405); assay: Syk enzyme inhibition (FRET); assay type: biochemical
How it was run: as §1

[1] = tested on: TNFα release, d-U937 cells; assay: LPS-induced TNFα release in d-U937 cells; assay type: cell-based; settings: Homo sapiens, dU937; relative to 10 μg/mL BIRB796; Table 4c1; read-out: LPS Induced Release of Cytokine in d-U937 Cells, TNFα REC50
How it was run: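 U937 cells differentiated with PMA (100 ng/mL, 48–72 hr), pre-treated with compound for 2 hr, then stimulated with E. coli LPS (0.1 μg/mL) for 4 hr. Supernatant cytokine measured by sandwich ELISA; inhibition versus vehicle control, REC50 from concentration-response curve.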

[2] = tested on: IL-8 release, d-U937 cells; assay: LPS-induced IL-8 release in d-U937 cells; assay type: cell-based; settings: Homo sapiens, dU937; Table 4c1; read-out: LPS Induced Release of Cytokine in d-U937 Cells, IL-8 IC50
How it was run: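 IL-8 release after a 4 hr challenge with LPS (0.1 μg/mL, E. coli 0111:B4) following a 2 hr compound pretreatment. Cells were human U937 monocytes differentiated to macrophage-type with PMA 100 ng/mL for 48–72 hr. Relative 50% effective concentration derived from concentration–response data.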

[3] = tested on: ICAM-1 expression, BEAS2B cells; assay: Poly I:C-induced ICAM-1 expression in BEAS2B cells; assay type: cell-based; settings: Homo sapiens, BEAS-2B; read-out: Poly IC induced ICAM1 in BEAS2B, IC50
How it was run: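 BEAS2B human bronchial epithelial cells pre-incubated 2 h with compound, then transfected with poly I:C (1 μg/mL) plus Oligofectamine. After 18 h, cell-surface ICAM-1 read by cell-based ELISA (A450–655), normalised to Crystal Violet cell number (A595); inhibition calculated against vehicle control at each concentration.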

GSK3α [4] = target: T1, GSK3α (Homo sapiens, UniProt P49840); assay: GSK 3α enzyme inhibition (FRET), Method 1; assay type: biochemical; settings: Table 4a1
T1 sequence (P49840 whole entry): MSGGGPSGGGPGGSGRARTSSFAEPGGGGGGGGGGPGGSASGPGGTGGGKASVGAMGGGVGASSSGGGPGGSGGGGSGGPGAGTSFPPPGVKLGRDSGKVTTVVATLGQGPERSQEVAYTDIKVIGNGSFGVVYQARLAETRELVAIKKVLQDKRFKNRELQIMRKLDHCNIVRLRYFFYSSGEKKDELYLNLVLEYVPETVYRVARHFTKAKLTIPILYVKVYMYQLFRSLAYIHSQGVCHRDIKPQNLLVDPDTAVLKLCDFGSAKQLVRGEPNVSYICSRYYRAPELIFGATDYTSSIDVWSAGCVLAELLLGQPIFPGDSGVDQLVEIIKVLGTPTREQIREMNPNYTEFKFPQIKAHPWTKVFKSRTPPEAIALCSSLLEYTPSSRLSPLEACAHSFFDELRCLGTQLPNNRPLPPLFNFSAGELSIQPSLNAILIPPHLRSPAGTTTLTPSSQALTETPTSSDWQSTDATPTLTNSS
How it was run: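 Z-LYTE FRET format. Enzyme (500 ng/mL stock) + compound (stocks 4–0.004 μg/mL), 2 hr RT; add peptide (8 μM stock) + ATP (40 μM stock), 1 hr; protease 1 hr; read donor/acceptor emission ratio.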

HRV16 in MRC5 cells = assay: HRV16 induced CPE in MRC5 cells; assay type: cell-based; settings: Human rhinovirus sp., HRV-16
Method: (j) Assessment of HRV16 Induced CPE in MRC5 Cells
MRC-5 cells are infected with HRV16 at an MOI of 1n DMEM containing 5% FCS and 1.5 mM magnesium chloride, followed by incubation for 1 hr at 33° C. to promote adsorption. The supernatants are aspirated, and then fresh media added followed by incubation for 4 days. Where appropriate, cells are pre-incubated with compound or DMSO for 2 hr, and the compounds and DMSO added again after washout of the virus.
After washing, 1% SDS in distilled water (100 μL) is added to each well, and the plates are shaken lightly for 1-2 hr prior to reading the absorbance at 660 nm. The percentage inhibition for each well is calculated. The IC50 value is calculated from the concentration-response curve generated by the serial dilutions of the test compounds.

IFN gamma release, PBMCs = assay: IFN gamma release in CD3/CD28 stimulated PBMC cells; assay type: cell-based; settings: Homo sapiens, read-out: IC50 Values for Inhibition of Cytokine Release, PBMCs, IFNγ
Method: (§2) (c) IL-2 and IFN Gamma Release in CD3/CD28 Stimulated PBMC Cells
(§3) PBMCs from healthy subjects are separated from whole blood using a density gradient (Lymphoprep, Axis-Shield Healthcare). Cells are added to a 96 well plate pre-coated with a mixture of […] monoclonal antibodies (0.3 ug/ml eBioscience and 3 ug/ml BD Pharmingen respectively). Compound at the desired concentration is then added to the wells and the plate left for 3 days under normal tissue culture conditions. Supernatants are harvested and IL-2 and IFN gamma release determined by Sandwich ELISA (Duo-set, R&D System). The IC50 is determined from the dose response curve.

IL-8 release, PBMCs = assay: LPS-induced IL-8 release in PBMC cells; assay type: cell-based; settings: Homo sapiens, LPS stimulated, read-out: IC50 Values for Inhibition of Cytokine Release, PBMCs, IL-8
How it was run: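 PBMCs from healthy donors pretreated with compound for 2 h, then stimulated with 1 ng/ml LPS (E. coli 0111:B4) for 24 h at 37 °C, 5% CO2. Supernatant IL-8 and TNFα measured by sandwich ELISA with fluorescence read-out.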

IL-8 release, HT29 cells = assay: IL-1β-induced IL-8 release in HT29 cells; assay type: cell-based; settings: Homo sapiens, HT-29; IL-1β stimulated; read-out: IC50 Values for Inhibition of Cytokine Release, HT29 cells, IL-8
Method: (d) IL-1β-Induced IL-8 Release in HT29 Cells
HT29 cells, a human colon adenocarcinoma cell line, are plated in a 96 well plate (24 hrs) and pre-treated with compounds at the desired concentration for 2 hours before addition of 5 ng/ml of IL-1β (Abeam) for 24 hours, Supernatants are harvested for IL-8 quantification by Sandwich ELISA (Duo-set, R&D System). The IC50 is determined from the dose response curve.

PBMC cells = assay: Cell mitosis assay; assay type: cell-based; settings: Homo sapiens, read-out: % Inhibition of mitosis in PBMC cells at 5 μg/mL
Method: PBMCs from healthy subjects are separated from whole blood (Quintiles, London, UK) using a density gradient (Histopaque®-1077, Sigma-Aldrich, Poole, UK). The PBMCs (3 million cells per sample) are subsequently treated with 2% PHA (Sigma-Aldrich, Poole, UK) for 48 hr, followed by a 20 hr exposure to varying concentrations of test compounds. At 2 hr before collection, PBMCs are treated with demecolcine (0.1 μg/mL; Invitrogen, Paisley, UK) to arrest cells in metaphase. […] Fluorescence is observed using an ATTUNE flow cytometer (Invitrogen, Paisley, UK), gating for lymphocytes.

IL-2 release, PBMCs = assay: IL-2 release in CD3/CD28 stimulated PBMC cells; assay type: cell-based; settings: Homo sapiens, read-out: IC50 Values for Inhibition of Cytokine Release, PBMCs, IL-2
Method: as §2, §3

GSK3α [5] = target: T1, GSK3α; assay: GSK 3α enzyme inhibition (FRET), Method 2; assay type: biochemical; settings: Table 4a2, different laboratory
[6] = Table 4a2, different laboratory

Row | Compound | LP inflammation (BDF1 mice) | Ulcer grade (BDF1 mice) | Cell viability at time point in d-U937 cells, 4 h (d-U937 cells) | Cell viability at time point in d-U937 cells, 24 h (d-U937 cells) | IC50 (cSrc; Table 4a1) [nM] | IC50 (Syk; Table 4a1) [nM] | EC50 [1] [nM] | IC50 [2] [nM] | IC50 [3] [nM] | IC50 (GSK3α [4]) [nM] | IC50 (HRV16 in MRC5 cells) [nM] | IC50 (cSrc; [6]) [nM] | IC50 (Syk; [6]) [nM] | IC50 (IFN gamma release, PBMCs) [nM] | IC50 (IL-8 release, PBMCs) [nM] | IC50 (IL-8 release, HT29 cells) [nM] | inhibition at 5 µg/mL (PBMC cells) [%] | IC50 (IL-2 release, PBMCs) [nM] | IC50 (GSK3α [5]) [nM]
1 | CCCC1O[C@@H]2C[C@H]3[C@@H]4CCC5=CC(=O)C=C[C@]5(C)[C@H]4[C@@H](O)C[C@]3(C)[C@]2(C(=O)CO)O1 (stereo partly drawn) [Budesonide, reference compound] | 2.5 ± 0.4 | 2.9 ± 0.6 |  |  |  |  |  |  |  |  |  |  |  |  |  |  |  |  | 
2 | COc1ccc(C(=O)NCCN2CCOCC2)cc1Nc1nccc(Oc2ccc(NC(=O)Nc3cc(C(C)C)nn3-c3ccc(C)cc3)c3ccccc23)n1 [Example 30, 3-((4-((4-(3-(3-isopropyl-1-(p-tolyl)-1H-pyrazol-5-yl)ureido)naphthalen-1-yl)oxy)pyrimidin-2-yl)amino)-4-methoxy-N-(2-morpholinoethyl)benzamide] |  |  | −ve (−ve and +ve indicate that the value is below and above respectively, the no significant effect threshold, defined as 30% inhibition at 1 μg/mL at the time point indicated) | −ve (−ve and +ve indicate that the value is below and above respectively, the no significant effect threshold, defined as 30% inhibition at 1 μg/mL at the time point indicated) | 1 | 103 | 2.1 | 9 | 117 | > 13200 | 0.43 |  |  |  |  |  |  |  | 
3 | Cc1ccc(-n2nc(C(C)(C)C)cc2NC(=O)Nc2ccc(Oc3ccnc(Nc4cc(C)cc(C(N)=O)c4)n3)c3ccccc23)cc1 [Example 40, 3-((4-((4-(3-(3-(tert-butyl)-1-(p-tolyl)-1H-pyrazol-5-yl)ureido)naphthalen-1-yl)oxy)pyrimidin-2-yl)amino)-5-methylbenzamide] |  |  | −ve (−ve and +ve indicate that the value is below and above respectively, the no significant effect threshold, defined as 30% inhibition at 1 μg/mL at the time point indicated) | −ve (−ve and +ve indicate that the value is below and above respectively, the no significant effect threshold, defined as 30% inhibition at 1 μg/mL at the time point indicated) | 3 | 9 | 0.2 | 2.2 | 0.7 | 1340 | 2.9 |  |  |  |  |  |  |  | 
4 | C#Cc1cc(Nc2nccc(Oc3ccc(NC(=O)Nc4cc(C(C)(C)C(F)(F)F)nn4-c4ccc(C)cc4)c4ccccc34)n2)cc(C(=O)NCCN2CCOCC2)c1 [Example 76, 3-Ethynyl-N-(2-morpholinoethyl)-5-((4-((4-(3-(1-(p-tolyl)-3-(1,1,1-trifluoro-2-methylpropan-2-yl)-1H-pyrazol-5-yl)ureido)naphthalen-1-yl)oxy)pyrimidin-2-yl)amino)-benzamide] |  |  |  |  |  |  |  |  |  |  |  | 45 | 34 | 1.8 | 2.1 | 3 | 23 | 188 | 1780
5 | C#Cc1cc(Nc2nccc(Oc3ccc(NC(=O)Nc4cc(C(C)(C)C)nn4-c4ccc(C)cc4)c4ccccc34)n2)cc(C(=O)N[C@H](C)CN2CCOCC2)c1 [Example 83, (R)-3-((4-((4-(3-(3-(tert-Butyl)-1-(p-tolyl)-1H-pyrazol-5-yl)ureido)naphthalen-1-yl)oxy)pyrimidin-2-yl)amino)-5-ethynyl-N-(1-morpholinopropan-2-yl)benzamide] |  |  |  |  |  |  |  |  |  |  |  | 26 | 59 | 1.8 | 3.8 | 5.3 | 20.9 | 124 | 11700
